Patent publication US10533044B2, “Integrin Antagonists” (The General Hospital Corporation, priority 2014, dated 2020)
pIC50: −log10 of the molar value. Positions of bridges follow the written chain, without caps; N, C: chain ends. Non-standard residues stand in square brackets, D forms with d. Residues, ends and D or L forms follow the SMILES beside them. hArg = N=C(N)NCCCC[C@H](N)C(=O)O; Mpa = O=C(O)CCS

Legend:
αVβ3^N/S [1] = target: T1, αVβ3^N/S (Homo sapiens, UniProt P05106+P06756, N365S); assay: biochemical; settings: IC50, inhibition of fibrinogen binding to αVβ3^N/S, HEK293 cells, constitutively active αVβ3^N/S
T1 sequence (P06756 31-889 limits assumed): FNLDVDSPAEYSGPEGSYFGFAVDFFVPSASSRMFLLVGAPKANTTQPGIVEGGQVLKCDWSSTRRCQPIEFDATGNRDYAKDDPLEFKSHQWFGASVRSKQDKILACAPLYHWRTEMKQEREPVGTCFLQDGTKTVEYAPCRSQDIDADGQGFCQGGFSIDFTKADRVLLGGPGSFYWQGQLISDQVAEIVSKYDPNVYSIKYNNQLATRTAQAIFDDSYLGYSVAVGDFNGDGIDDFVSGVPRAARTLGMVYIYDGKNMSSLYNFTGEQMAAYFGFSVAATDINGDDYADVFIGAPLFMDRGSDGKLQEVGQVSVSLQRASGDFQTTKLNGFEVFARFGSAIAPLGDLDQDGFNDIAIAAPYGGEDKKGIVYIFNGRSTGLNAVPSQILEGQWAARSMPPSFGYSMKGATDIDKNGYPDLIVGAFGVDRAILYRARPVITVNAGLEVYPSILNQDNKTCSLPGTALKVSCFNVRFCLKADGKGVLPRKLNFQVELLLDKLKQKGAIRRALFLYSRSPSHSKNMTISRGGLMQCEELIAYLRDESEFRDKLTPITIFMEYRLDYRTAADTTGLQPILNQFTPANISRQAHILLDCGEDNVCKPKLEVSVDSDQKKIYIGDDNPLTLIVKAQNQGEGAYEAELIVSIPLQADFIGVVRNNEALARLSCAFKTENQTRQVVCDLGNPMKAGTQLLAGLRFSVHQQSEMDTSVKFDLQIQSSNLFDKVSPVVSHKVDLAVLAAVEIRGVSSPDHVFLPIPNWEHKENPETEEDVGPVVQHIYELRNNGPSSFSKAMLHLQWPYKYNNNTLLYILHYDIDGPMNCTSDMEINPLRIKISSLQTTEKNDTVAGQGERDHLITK
T1 sequence (P06756 891-1048 partner limits assumed): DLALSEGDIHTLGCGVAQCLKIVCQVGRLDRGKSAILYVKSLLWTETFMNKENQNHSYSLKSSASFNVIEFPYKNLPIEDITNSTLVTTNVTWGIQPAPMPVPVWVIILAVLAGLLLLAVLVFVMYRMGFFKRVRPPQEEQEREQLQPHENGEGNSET
T1 sequence (P05106 27-788 N365S): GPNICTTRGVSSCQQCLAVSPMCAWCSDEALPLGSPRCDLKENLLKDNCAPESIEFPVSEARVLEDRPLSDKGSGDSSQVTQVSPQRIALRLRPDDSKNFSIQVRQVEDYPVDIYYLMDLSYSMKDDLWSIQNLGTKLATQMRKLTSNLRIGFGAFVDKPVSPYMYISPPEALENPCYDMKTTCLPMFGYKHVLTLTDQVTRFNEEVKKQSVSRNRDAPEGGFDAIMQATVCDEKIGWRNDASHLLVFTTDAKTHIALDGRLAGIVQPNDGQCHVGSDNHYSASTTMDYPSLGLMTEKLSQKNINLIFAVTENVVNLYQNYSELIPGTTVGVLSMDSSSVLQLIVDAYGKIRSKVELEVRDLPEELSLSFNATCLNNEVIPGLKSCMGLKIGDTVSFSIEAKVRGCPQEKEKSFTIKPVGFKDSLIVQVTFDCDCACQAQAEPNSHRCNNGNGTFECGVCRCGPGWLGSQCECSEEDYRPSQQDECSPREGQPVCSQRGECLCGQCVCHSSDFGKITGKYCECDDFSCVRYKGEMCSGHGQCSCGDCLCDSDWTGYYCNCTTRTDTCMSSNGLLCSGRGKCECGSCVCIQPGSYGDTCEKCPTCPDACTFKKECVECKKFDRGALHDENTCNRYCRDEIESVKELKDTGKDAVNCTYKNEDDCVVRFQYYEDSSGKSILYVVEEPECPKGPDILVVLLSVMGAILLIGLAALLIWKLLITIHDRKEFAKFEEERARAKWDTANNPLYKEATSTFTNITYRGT

αVβ3 = assay: AP5 LIBS expression on αVβ3^N/S or Mn2+-activated αVβ3 in presence of R-epti-D; type: cell-based; settings: αVβ3^N/S in Ca2+/Mg2+ or Mn2+-activated αVβ3; preliminary study
Procedure: FIG. 16. […] One experiment was done under each condition. […] Common residues are in black. […] Spheres represent the metal ion at MIDAS.
K562-αVβ3 cells, transiently transfected HEK293T or αVβ3^+M21 cells (0.5×10^6 in 100 μl WB) were incubated in the absence or presence of unlabeled soluble FN10 (5 μg) in Ca^2+/Mg^2+ or in Mn^2+ (30 min; at 25° C.). Alexa647-labeled AP5 Fab (plus Alexa488-labeled AP3, when HEK293T cells were used), unlabeled anti-LIBS-1 (all to 10 μg/ml) or LIBS-6 ascites (to 1:50 dilution) were added, and the cells incubated for an additional 30 min before washing. APC-labeled goat anti-mouse Fc-specific antibody was added to anti-LIBS-1- or anti-LIBS-6-bound M21 cells, cells were incubated for an additional 30 min at 4° C. then washed, resuspended, fixed in 4% paraformaldehyde and analyzed by flow cytometry. LIBS epitope expression was measured and expressed as MFI (in case of K562-αVβ3 or M21 cells) and normalized (in case of HEK293T cells) by dividing its MFI by the MFI for Alexa488-labeled AP3, and multiplied by 100.

platelet integrin αIIbβ3 = platelet integrin αIIbβ3 (Homo sapiens, UniProt P05106+P08514); settings: parenteral use; cited from earlier work
Sequence of platelet integrin αIIbβ3 (P08514 32-887 limits assumed): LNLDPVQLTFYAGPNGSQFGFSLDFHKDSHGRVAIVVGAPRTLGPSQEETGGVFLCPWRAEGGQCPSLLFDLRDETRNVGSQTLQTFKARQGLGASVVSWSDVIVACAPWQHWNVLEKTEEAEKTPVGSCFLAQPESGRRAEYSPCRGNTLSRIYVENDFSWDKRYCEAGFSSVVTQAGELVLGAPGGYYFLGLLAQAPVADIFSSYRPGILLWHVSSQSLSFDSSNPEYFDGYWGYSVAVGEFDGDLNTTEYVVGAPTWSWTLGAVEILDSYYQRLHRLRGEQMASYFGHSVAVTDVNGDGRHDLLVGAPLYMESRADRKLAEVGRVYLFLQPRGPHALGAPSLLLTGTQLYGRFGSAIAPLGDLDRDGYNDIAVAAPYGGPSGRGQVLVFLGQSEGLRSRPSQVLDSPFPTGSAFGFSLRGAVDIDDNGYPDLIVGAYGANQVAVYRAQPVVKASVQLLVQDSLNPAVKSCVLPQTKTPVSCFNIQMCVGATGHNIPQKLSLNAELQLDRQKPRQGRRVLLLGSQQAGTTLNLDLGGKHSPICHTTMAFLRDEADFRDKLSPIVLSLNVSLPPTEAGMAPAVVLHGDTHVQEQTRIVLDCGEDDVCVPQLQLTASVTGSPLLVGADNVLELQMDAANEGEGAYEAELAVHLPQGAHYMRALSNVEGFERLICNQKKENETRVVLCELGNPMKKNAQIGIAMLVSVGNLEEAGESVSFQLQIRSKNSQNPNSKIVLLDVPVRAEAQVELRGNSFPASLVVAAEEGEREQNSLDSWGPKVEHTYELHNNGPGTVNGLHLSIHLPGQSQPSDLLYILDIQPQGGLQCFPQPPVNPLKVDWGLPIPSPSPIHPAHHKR
Sequence of platelet integrin αIIbβ3 (P08514 891-1039 partner limits assumed): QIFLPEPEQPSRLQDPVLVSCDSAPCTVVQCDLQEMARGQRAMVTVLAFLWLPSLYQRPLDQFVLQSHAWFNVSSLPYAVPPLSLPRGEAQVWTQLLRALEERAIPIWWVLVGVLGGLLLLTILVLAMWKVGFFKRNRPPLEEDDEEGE
Sequence of platelet integrin αIIbβ3 (P05106 27-788): as the sequence (P05106 27-788 N365S) above, with S339N counted along it

αVβ3^N/S [2] = target: T1, αVβ3^N/S

Row | Compound | pIC50 (αVβ3^N/S [1]) | pIC50 (αVβ3^N/S [1]; converted) | AP5 LIBS expression (αVβ3) | Patients with severe thrombocytopenia (platelet integrin αIIbβ3) [%] | Binding to αVβ3 (αVβ3^N/S [2])
1 | N=C(N)NCCC[C@@H]1NC(=O)CCSSC[C@@H](C(N)=O)NC(=O)[C@@H]2CCCN2C(=O)[C@@H](Cc2c[nH]c3ccccc23)NC(=O)[C@H](CC(=O)O)NC(=O)CNC1=O [R-epti-D] ([Mpa]RGD[dW]PC-NH2; disulfide 1-7) | 5.68 | ~5.70 | reduced AP5 LIBS expression | – | –
2 | N=C(N)NCCCC[C@@H]1NC(=O)CCSSC[C@@H](C(N)=O)NC(=O)[C@@H]2CCCN2C(=O)[C@H](Cc2c[nH]c3ccccc23)NC(=O)[C@H](CC(=O)O)NC(=O)CNC1=O [eptifibatide] ([Mpa][hArg]GDWPC-NH2; disulfide 1-7) | – | – | – | ~2 | does not bind
